Data as given in PMC9072656, “Inhibition of Human Sulfotransferases by Phthalate Monoesters” (Frontiers in Endocrinology, 2022).

Key:
Format in all cases: biochemical
SULT1B1 [1] = biological target: T1, SULT1B1 (Homo sapiens, UniProt O43704); test: inhibition of 4-nitrophenol sulfation, UPLC-UV, Lineweaver-Burk slope replot
T1 construct: recombinant, purchased from BD Gentest

SULT1E1 [2] = biological target: T2, SULT1E1 (Homo sapiens, UniProt P49888); test: inhibition of 4-nitrophenol sulfation, UPLC-UV
T2 construct: recombinant, purchased from BD Gentest
T2 sequence (P49888 1-294): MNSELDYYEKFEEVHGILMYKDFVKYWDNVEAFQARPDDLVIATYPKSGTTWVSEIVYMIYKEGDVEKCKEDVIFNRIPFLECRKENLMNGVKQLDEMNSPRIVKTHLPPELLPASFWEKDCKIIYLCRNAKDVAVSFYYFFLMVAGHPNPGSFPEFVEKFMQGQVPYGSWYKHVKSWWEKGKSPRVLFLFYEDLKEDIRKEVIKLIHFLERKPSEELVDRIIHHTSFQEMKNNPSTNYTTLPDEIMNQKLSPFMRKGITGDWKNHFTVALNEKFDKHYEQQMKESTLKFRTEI
Description: inhibition of 4-nitrophenol sulfation, UPLC-UV on SULT1E1

SULT1E1 [3] = biological target: T2, SULT1E1; test: inhibition of 4-nitrophenol sulfation, UPLC-UV, Lineweaver-Burk slope replot
SULT1B1 [4] = biological target: T1, SULT1B1; test: inhibition of 4-nitrophenol sulfation, UPLC-UV
Description: inhibition of 4-nitrophenol sulfation, UPLC-UV on SULT1B1

SULT1A1 = biological target: T3, SULT1A1 (Homo sapiens, UniProt P50225); test: inhibition of 4-nitrophenol sulfation, UPLC-UV
T3 construct: recombinant, purchased from BD Gentest
Description: inhibition of 4-nitrophenol sulfation, UPLC-UV on SULT1A1

T3 sequence (P50225 whole entry): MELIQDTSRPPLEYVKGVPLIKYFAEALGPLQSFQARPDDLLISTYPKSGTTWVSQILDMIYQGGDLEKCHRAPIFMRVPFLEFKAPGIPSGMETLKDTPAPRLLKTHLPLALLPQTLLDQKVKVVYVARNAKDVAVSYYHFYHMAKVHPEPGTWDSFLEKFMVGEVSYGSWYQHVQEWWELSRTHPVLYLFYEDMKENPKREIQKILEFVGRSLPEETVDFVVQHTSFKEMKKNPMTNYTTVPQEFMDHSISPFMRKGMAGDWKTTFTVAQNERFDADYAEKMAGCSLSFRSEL
T1 sequence (O43704 whole entry): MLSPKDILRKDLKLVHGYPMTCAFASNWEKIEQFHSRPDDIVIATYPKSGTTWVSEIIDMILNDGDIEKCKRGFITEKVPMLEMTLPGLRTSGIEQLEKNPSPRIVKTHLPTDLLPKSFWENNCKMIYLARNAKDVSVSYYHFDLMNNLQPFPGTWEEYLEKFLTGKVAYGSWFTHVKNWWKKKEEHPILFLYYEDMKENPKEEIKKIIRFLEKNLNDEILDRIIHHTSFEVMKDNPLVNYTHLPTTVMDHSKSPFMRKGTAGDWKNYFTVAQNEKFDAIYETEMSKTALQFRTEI

Row | Compound | Ki (SULT1B1 [1]) [µM] | IC50 (SULT1E1 [2]) [µM] | Ki (SULT1E1 [3]) [µM] | IC50 (SULT1B1 [4]) [µM] | IC50 (SULT1A1) [µM]
1 | CCCCCCCCOC(=O)c1ccccc1C(=O)O [MOP] | 2.23 | 1.77 | 5.54 | 2.73 | 5.61
2 | CCCCCCOC(=O)c1ccccc1C(=O)O [MHP] | – | 4.54 | – | 11.6 | 17.1
3 | O=C(O)c1ccccc1C(=O)OC1CCCCC1 [MCHP] | – | – | – | 12.8 | –
4 | CCCCOC(=O)c1ccccc1C(=O)O [MBP] | – | – | – | 8.49 | –
5 | CCCCC(CC)COC(=O)c1ccccc1C(=O)O (centres unmarked) [MEHP] | – | 1.73 | – | 13.9 | 2.32
6 | O=C(O)c1ccccc1C(=O)OCc1ccccc1 [MBZP] | – | – | – | – | 0.25
